Patent US12428415B2, “Matriptase 2 inhibitors and uses thereof” (Disc Medicine, Inc., priority 2018, dated 2025)

What follows are molecules tested against T1, Human Recombinant Matriptase 2 (Homo sapiens, UniProt Q8IU80) (assay: Matriptase 2 fluorescence based inhibition assay, Method B (50 mM TRIS pH 7.5, 150 mM NaCl, 0.01% gelatin)). Details: 1 uM compound; Assay Used = B (Method B).
T1 construct: purchased Enzo Life Sciences (an in-house preparation was also used) ALX-201-752-1
T1 sequence (Q8IU80 1-811): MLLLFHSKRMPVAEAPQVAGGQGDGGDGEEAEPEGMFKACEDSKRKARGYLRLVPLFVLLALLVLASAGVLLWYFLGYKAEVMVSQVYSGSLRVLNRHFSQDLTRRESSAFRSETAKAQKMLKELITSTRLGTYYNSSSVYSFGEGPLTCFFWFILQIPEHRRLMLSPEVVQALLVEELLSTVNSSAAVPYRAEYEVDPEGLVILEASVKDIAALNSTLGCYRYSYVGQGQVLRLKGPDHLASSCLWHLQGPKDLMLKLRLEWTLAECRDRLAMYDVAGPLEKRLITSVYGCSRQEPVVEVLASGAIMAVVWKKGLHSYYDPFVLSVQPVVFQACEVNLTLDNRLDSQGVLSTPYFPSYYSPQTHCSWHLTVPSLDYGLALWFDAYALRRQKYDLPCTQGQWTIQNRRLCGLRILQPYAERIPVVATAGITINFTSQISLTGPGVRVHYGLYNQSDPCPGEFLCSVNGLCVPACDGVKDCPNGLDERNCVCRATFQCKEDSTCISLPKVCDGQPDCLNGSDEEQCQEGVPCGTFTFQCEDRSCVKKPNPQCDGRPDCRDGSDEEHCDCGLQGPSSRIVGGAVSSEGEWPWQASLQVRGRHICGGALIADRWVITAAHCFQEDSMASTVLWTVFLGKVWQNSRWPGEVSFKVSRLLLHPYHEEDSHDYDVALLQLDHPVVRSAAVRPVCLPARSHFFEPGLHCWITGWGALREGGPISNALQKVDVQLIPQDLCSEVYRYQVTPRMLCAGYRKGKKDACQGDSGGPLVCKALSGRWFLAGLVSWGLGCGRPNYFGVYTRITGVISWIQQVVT
Assay type: biochemical
How it was run: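 Commercial (7 nM) or in-house (15 nM) enzyme preincubated 30 min with compound at 25° C, then 100 μM Boc-Gln-Ala-Arg-AMC added; fluorescence (Ex 360/Em 480 nm) read at 60 min. 1% DMSO final. IC50 from variable-slope sigmoidal fit of % inhibition.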
With N=C(N)c1ccc2cc(C(=O)N[C@H]3CC[C@H](N)CC3)n(Cc3ccc(C(N)=O)c4ccccc34)c2c1 [Compound I-642] the “Mar-2 % inhibition at 1 uM” value was “C (C represents 50%≤I≤75%)”.

Same assay, conditions: 1 uM compound; Assay Used = B (Method B); read-out: Mar-2 % inhibition at 1 uM
N=C(N)c1ccc2cc(C(=O)N[C@H]3CC[C@H](N)CC3)n(Cc3cnoc3-c3ccc(Cl)s3)c2c1 [Compound I-755] showed an inhibition at 1 µM of 25 to 50%. With CCOC(=O)NC(=N)c1ccc2cc(C(=O)O)n(Cc3cccc4ccccc34)c2c1 [Compound I-712] the inhibition at 1 µM was 0 to 25%. For N=C(N)c1ccc2cc(C(=O)NCc3ccncc3)n(Cc3cccc4ccccc34)c2c1 [Compound I-758], the inhibition at 1 µM was 50 to 75%. In the case of N=C(N)c1ccc2cc(C(=O)N[C@H]3CC[C@H](N)CC3)n(Cc3cccc4c(Br)cccc34)c2c1 [Compound I-792], the inhibition at 1 µM is reported as 75 to 100%. N=C(N)c1ccc2cc(C(=O)O)n(Cc3csc4ccccc34)c2c1 [Compound I-703] was tested, and the inhibition at 1 µM was 50 to 75%. COC(=O)NCCOC(=O)c1cc2ccc(C(=N)N)cc2n1Cc1cccc2ccccc12 [Compound I-602] was tested, and the inhibition at 1 µM was 50 to 75%. N=C(N)c1ccc2cc(C(=O)N[C@H]3CC[C@H](N)CC3)n(Cc3ccc(Br)c4ccccc34)c2c1 [Compound I-794] showed an inhibition at 1 µM of 75 to 100%. CC(C)Oc1ccc2c(Cn3c(C(=O)O)cc4ccc(C(=N)N)cc43)cccc2c1 [Compound I-793] showed an inhibition at 1 µM of 50 to 75%. N/C(=N/O)c1ccc2cc(C(=O)O)n(Cc3cccc4ccccc34)c2c1 [Compound I-759] gave an inhibition at 1 µM of 0 to 25%. Molecule CCOC(=O)c1cc2ccc(C(=N)NC(=O)OCC(C)C)cc2n1Cc1cc(Oc2ncccn2)cc2ccccc12 [Compound I-607] has an inhibition at 1 µM of 0 to 25%. CCOC(=O)c1cc2ccc(C(=N)N)cc2n1Cc1cc(Oc2ncccn2)cc2ccccc12 [Compound I-598, Ethyl 6-carbamimidoyl-1-((3-(pyrimidin-2-yloxy)naphthalen-1-yl)methyl)-1H-indole-2-carboxylate] showed an inhibition at 1 µM of 75 to 100%. N=C(N)c1cc2c(cn1)cc(C(=O)O)n2Cc1cccc2ccccc12 [Compound I-706] gave an inhibition at 1 µM of 25 to 50%. Molecule N=C(N)c1ccc2cc(C(=O)O)n(Cc3cc(Oc4ccccn4)cc4ccccc34)c2c1 [Compound I-628] has an inhibition at 1 µM of 75 to 100%. N=C(N)c1ccc2cc(C(=O)O[C@H]3CC[C@@H](N)CC3)n(Cc3cccc4ccccc34)c2c1 [Compound I-744] gave an inhibition at 1 µM of 75 to 100%. Molecule N=C(N)c1ccc2cc(C(=O)N[C@H]3CC[C@H](N)CC3)n(Cc3cc(OCCc4ccccc4)cc4ccccc34)c2c1 [Compound I-737] has an inhibition at 1 µM of 75 to 100%. N=C(N)c1ccc2cc(C(=O)O)n(Cc3cc(OS(=O)(=O)c4ccccc4)cc4ccccc34)c2c1 [Compound I-621] showed an inhibition at 1 µM of 75 to 100%. Work on N=C(N)c1ccc2cc(C(=O)N[C@H]3CC[C@H](N)CC3)n(Cc3cc(Oc4ncccn4)cc4ccccc34)c2c1 [Compound I-670] yielded an inhibition at 1 µM of 75 to 100%. With N=C(N)c1ccc2cc(C(=O)N[C@H]3CC[C@H](N)CC3)n(C[C@H]3CCCc4ccccc43)c2c1 (racemic) [Compound I-612] the inhibition at 1 µM was 25 to 50%. With N=C(N)c1ccc2cc(C(=O)O)n(Cc3cc(Oc4cccnc4)cc4ccccc34)c2c1 [Compound I-626] the inhibition at 1 µM was 25 to 50%. With NCc1ccc2cc(C(=O)N[C@H]3CC[C@H](N)CC3)n(Cc3cc(S(=O)(=O)c4ccccc4)cc4ccccc34)c2c1 [Compound I-636] the inhibition at 1 µM was 25 to 50%. CC(C)COC(=O)NC(=N)c1ccc2cc(C(=O)O)n(Cc3cc(Oc4ccccc4)cc4ccccc34)c2c1 [Compound I-622] showed an inhibition at 1 µM of 0 to 25%. N=C(N)c1ccc2cc(C(=O)O)n(Cc3cc(Oc4ccc(-c5ccccc5)cc4)cc4ccccc34)c2c1 [Compound I-711] showed an inhibition at 1 µM of 25 to 50%. In the case of N=C(N)c1ccc2cc(C(=O)O)n(Cc3cc(Nc4ccccc4)cc4ccccc34)c2c1 [Compound I-656], the inhibition at 1 µM is reported as 50 to 75%.

Same assay, conditions: 1 uM compound; Assay Used = B; read-out: Mar-2 % inhibition at 1 uM
Work on N=C(N)c1ccc2c(C(=O)N[C@H]3CC[C@H](N)CC3)cn(Cc3cccc4ccccc34)c2c1 [Compound I-519, N-((1r,4r)-4-aminocyclohexyl)-6-carbamimidoyl-1-(naphthalen-1-ylmethyl)-1H-indole-3-carboxamide] yielded an inhibition at 1 µM of 0 to 25%. With N=C(N)c1ccc2cc(C(=O)N[C@H]3CC[C@H](N)CC3)n(Cc3cccc(Cl)c3Cl)c2c1 [Compound I-498] the inhibition at 1 µM was 25 to 50%. For N=C(N)c1ccc2cc(C(=O)NS(=O)(=O)C3CC3)n(Cc3cccc4ccccc34)c2c1 [Compound I-484], the inhibition at 1 µM was 25 to 50%. CC(C)(C)OC(=O)NC(=N)c1ccc2cc(C(=O)N[C@H]3CC[C@H](NC(=O)OC(C)(C)C)CC3)n(Cc3ccnc4ccccc34)c2c1 [Compound I-494] was tested, and the inhibition at 1 µM was 0 to 25%. CN1CCC(NC(=O)c2cc3ccc(C(=N)N)cc3n2Cc2cc(Oc3ncccn3)cc3ccccc23)CC1 [Compound I-594] was tested, and the inhibition at 1 µM was 75 to 100%. CN1CCN(C(=O)c2cc3ccc(C(=N)N)cc3n2Cc2cccc3ccccc23)CC1 [Compound I-443] showed an inhibition at 1 µM of 0 to 25%. CCOC(=O)N1CCC(NC(=O)c2cc3ccc(C(=N)NC(=O)OC(C)(C)C)cc3n2Cc2cccc3ccccc23)CC1 [Compound I-420] showed an inhibition at 1 µM of 0 to 25%. N=C(N)c1ccc2cc(C(=O)N3CCCNCC3)n(Cc3cccc4ccccc34)c2c1 [Compound I-442] showed an inhibition at 1 µM of 50 to 75%. Molecule N=C(N)c1ccc2[nH]c(C(=O)O)c(Cc3cc(Oc4ccccc4)cc4ccccc34)c2c1 [Compound I-588] has an inhibition at 1 µM of 25 to 50%. In the case of CC(C)(C)OC(=O)NC(=N)c1ccc2cc(C(=O)N3CCC(CO)CC3)n(Cc3cccc4ccccc34)c2c1 [Compound I-426], the inhibition at 1 µM is reported as 0 to 25%. In the case of N=C(N)c1ccc2cc(C(=O)NCCCN)n(Cc3cccc4ccccc34)c2c1 [Compound I-466], the inhibition at 1 µM is reported as 75 to 100%. N=C(N)c1ccc2cc(-c3nc4c(s3)CCC(N)C4)n(Cc3cccc4ccccc34)c2c1 (stereo not shown) [Compound I-528, 2-(5-amino-4,5,6,7-tetrahydrobenzo[d]thiazol-2-yl)-1-(naphthalen-1-ylmethyl)-1H-indole-6-carboximidamide] was tested, and the inhibition at 1 µM was 25 to 50%. Molecule N=C(N)c1ccc2cc(C(=O)N3CCC(CN)CC3)n(Cc3cccc4ccccc34)c2c1 [Compound I-429] has an inhibition at 1 µM of 50 to 75%. For COc1ccc2c(Cn3c(C(=O)N[C@H]4CC[C@H](N)CC4)cc4ccc(C(=N)N)cc43)cccc2c1 [Compound I-506], the inhibition at 1 µM was 75 to 100%. Molecule CN1CCC(CNC(=O)c2cc3ccc(C(=N)N)cc3n2Cc2cc(Oc3ncccn3)cc3ccccc23)CC1 [Compound I-590] has an inhibition at 1 µM of 75 to 100%. N=C(N)c1ccc2cc(C(=O)O)n(Cc3cc(Oc4ncccn4)cc4ccccc34)c2n1 [Compound I-544] gave an inhibition at 1 µM of 25 to 50%. N=C(N)c1ccc2cc(C(=O)N[C@H]3CC[C@H](N)CC3)n(CCc3ccc4ccccc4c3)c2c1 [Compound I-410] was tested, and the inhibition at 1 µM was 25 to 50%. For COC(=O)NCCOC(=O)c1cc2ccc(C(=N)N)cc2n1Cc1cc(Oc2ncccn2)cc2ccccc12 [Compound I-583], the inhibition at 1 µM was 75 to 100%. Molecule CNC(=O)c1cc2ccc(C(=N)N)cc2n1Cc1cc(Oc2ncccn2)cc2ccccc12 [Compound I-578] has an inhibition at 1 µM of 75 to 100%. N=C(N)c1ccc2cc(C(=O)N[C@H]3CC[C@H](O)CC3)n(Cc3cccc4ccccc34)c2c1 [Compound I-440] was tested, and the inhibition at 1 µM was 75 to 100%. Molecule CC(C)COC(=O)NC(=N)c1ccc2cc(C(=O)NC3CCN(C)CC3)n(Cc3cc(Oc4ncccn4)cc4ccccc34)c2c1 [Compound I-557] has an inhibition at 1 µM of 0 to 25%.

Same assay, conditions: compound at 1 uM; Assay Used: B; read-out: Mar-2 % inhibition at 1 uM
CN(C)C(=O)c1ccc(Cn2c(C(=O)N[C@H]3CC[C@H](N)CC3)cc3ccc(C(=N)N)cc32)c2ccccc12 [Compound I-798] showed an inhibition at 1 µM of 50 to 75%. N=C(N)c1ccc2cc(C(=O)N[C@H]3CC[C@H](N)CC3)n(Cc3ccc(CO)c4ccccc34)c2c1 [Compound I-824] gave an inhibition at 1 µM of 75 to 100%. With N=C(N)c1ccc2cc(C(=O)N[C@H]3CC[C@H](N)CC3)n(CCCc3cccc4ccccc34)c2c1 [Compound I-817] the inhibition at 1 µM was 0 to 25%. For N=C(N)c1ccc2cc(-c3nnn[nH]3)n(Cc3cccc4ccccc34)c2c1 [Compound I-803, 1-(naphthalen-1-ylmethyl)-2-(1H-tetrazol-5-yl)-1H-indole-6-carboximidamide], the inhibition at 1 µM was 75 to 100%. For COC(=O)c1cc2c(Cn3c(C(=O)N[C@H]4CC[C@H](N)CC4)cc4ccc(C(=N)N)cc43)cccc2s1 [Compound I-822], the inhibition at 1 µM was 50 to 75%. Work on COc1ccc2ccccc2c1Cn1c(C(=O)N[C@H]2CC[C@H](N)CC2)cc2ccc(C(=N)N)cc21 [Compound I-799] yielded an inhibition at 1 µM of 0 to 25%.

Same assay, conditions: read-out: Mar-2 % inhibition at 1 uM
With COC(=O)NCCOC(=O)c1cc2ccc(C(=N)NC(=O)Oc3ccccc3)cc2n1Cc1cc(Oc2ncccn2)cc2ccccc12 [Compound I-554] the inhibition at 1 µM was 0 to 25%.
